EP0192317A1, “Homocarnosine or acylhomocarnosine salts” (HAMARI YAKUHIN KOGYO KABUSHIKI KAISHA also known as HAMARI …, priority 1985, dated 1986)

Key:
[1] = system: Water-immersion stress ulcer; assay: Water-immersion stress ulcer; assay type: in vivo, Male JCI-SD strain rats; conditions: for Ulcer Index (mm): 400 mg/kg orally 30 minutes before 7 hours immersion in 23°C water, sum of the lengths of the lesions in the body of the stomach; for Inhibition (%): 400 mg/kg orally, inhibition of water-immersion stress ulcer versus No drug
Procedure: After a fasting period of 24 hours, 400 mg/kg of each test compound was orally administered to each animal, and after 30 minutes, the animal was immobilized in a stress cage and was immersed in 23°C water down to the level of the thorax for 7 hours. After this stress loading, the rats was exsanguinated by decapitation and the stomach was excised and fixed in 1% formalin for 15 minutes. Then, an incision was made from the pyrolus along the greater curvature and the lengths of the lesions formed in the body of the stomach were measured using a dissecting microscope (with a scale graduated in 1/100 cm). The sum of the lengths was used as the ulcer index.

Wistar strain rats = assay: Acute toxicity study; assay type: in vivo; conditions: orally 5 g/kg, observed for 7 days, rats of either sex
Description: Wistar strain rats of either sex weighing 150 to 200 g were used in groups of 7 animals.

wound = assay: Wound healing-promoting activity (tension required for separating the back skin wound); assay type: in vivo, Male rats; conditions: for Tension: 10 g in 20 ml of peanut oil, 0.05 ml per dose once daily for 10 consecutive days, tension required for separating the wound
Procedure: 2. Wound healing-promoting activity (Method)
Male rats weighing about 180 g-were used in groups of 9 animals. The hair on the back of each rat was clipped with an electric clipper and under ether anesthesia, a wound (20 mm long) was made with a chisel having a 20 mm edge in two positions of the cropped back. A suspension of each test compound (10 g) in 20 ml of peanut oil was applied to the wound in a volume of 0.05 ml per dose once daily for 10 consecutive days. After 10 days, the animal was bled to death by decapitation and the skin of the back was peeled until the wound was separated. The tension (grams) required for separating the wound was measured as an indicator of drug efficacy.

[2] = system: Pyrolic ligation-induced ulcer; assay: Pyrolic ligation-induced ulcer (Shay method); assay type: in vivo, Male Wistar strains rats; conditions: for Inhibition (%): 300 mg/kg intraduodenally immediately after ligation, ulcer in the fore-stomach 13 hours after administration
Procedure: (b) Pyrolic ligation-induced ulcer
Male Wistar strains rats weighing about 300 g were deprived of food for 20 hours, with provision against fecal feeding, and used in groups of 8 animals. The pyrolus of each animal was ligated under ether anesthesia according to the method described by Shay et al. [H.G. Shay, S.A. Komarow, S.S. Felds, D. Meranze, M. Gruenstein, and H. Siplet, Gastroenterology, 5, 43 (1945)], and 300 mg/kg of each test compound was immediately administered intraduodenally. The incision was sutured and 13 hours after drug administration the rat was sacrified by cervical dislocation. The stomach was excised, slightly inflated by an injection of 1% formalin solution, immersed in the same solution for 15 minutes to fix the gastric wall, and then opened along the greater curvature. The ulcer in the fore-stomach was measured under a dissecting microscope .to calculate the ulcer index and the efficacy of the drug was expressed in terms of percent ulcer index.

Row | Compound | Ulcer Index (mm) [1] | Inhibition (%) [1] | death (Wistar strain rats) | Tension (wound) | Inhibition (%) [2] | wound healing-promoting effect (in words) (wound; summary of Table III) | antiulcer potency among the compounds tested (in words) ([2]; summary of Tables I and II)
1 | CN/C(=N/CCSCc1nc[nH]c1C)NC#N [Cimetidine, reference compound] | 4.02 mm | 60.7% | – | – | – | – | –
2 | NCCCC(=O)N[C@@H](Cc1cnc[nH]1)C(=O)O [Homocarnosine, L-homocarnosine] | 8.81 mm | 13.9% | No death | 218.78 g | 6.2% | – | –
3 | CC(=O)NCCCC(=O)N[C@@H](Cc1cnc[nH]1)C(=O)O [N-Acetyl-L-Homocarnosine, N-acetyl-L-homocarnosine, reference compound] | 9.95 mm | 6.7% | No death | 207.45 g | 2.4% | – | –
4 | (L-homocarnosine)2 zinc salt [(Homocarnosine)2 Zn] | 6.34 mm | 38.0% | – | – | – | – | –
5 | (N-acetyl-L-homocarnosine)2 zinc salt [(N-Acetyl-L-Homocarnosine)2 Zn] | 8.32 mm | 18.7% | – | – | – | – | –
6 | Basic aluminum sucrose sulfate [reference compound] | 8.54 mm | 16.6% | – | – | 4.7% | – | –
7 | Carnosine Zn [reference compound] | 4.61 mm | 54.9% | – | – | 39.2% | – | –
8 | L-homocarnosine aluminum salt [(Homocarnosine)2 AlOH] | 7.76 mm | 24.2% | – | – | – | – | –
9 | L-homocarnosine aluminum salt [(Homocarnosine)3 Al] | 8.24 mm | 19.5% | – | – | – | – | –
10 | L-homocarnosine aluminum salt [Homocarnosine Al(OH)2] | 7.10 mm | 30.6% | – | 220.28 g | 11.2% | – | –
11 | L-homocarnosine zinc salt [Homocarnosine Zn] | 3.85 mm | 62.4% | – | 249.36 g | 46.2% | particularly excellent | the most potent
12 | N-acetyl-L-homocarnosine aluminum salt [(N-Acetyl-L-Homocarnosine)2 Al] | 8.46 mm | 17.3% | – | – | – | – | –
13 | N-acetyl-L-homocarnosine aluminum salt [N-Acetyl-L-Homocarnosine Al(OH)2] | 5.40 mm | 47.2% | – | 203.57 g | 38.7% | – | –
14 | N-acetyl-L-homocarnosine zinc salt [N-Acetyl-L-Homocarnosine Zn] | 7.06 mm | 31.0% | – | 233.64 g | 22.1% | – | –
